ChEMBL document CHEMBL1795333, “Extraction of tacit knowledge from large ADME data sets via pairwise analysis” (Bioorg Med Chem, 2011)

Test: Apparent intrinsic clearance in human liver microsomes
Format: ADME, Microsome

microsomal CLint | Compound
11 µL/min/mg | CC1CCN(C(=O)C2CCOC2)CC1N(C)c1ncnc2[nH]ccc12 (centres undefined)
8 µL/min/mg | CC1CCN(C(=O)CS(C)(=O)=O)CC1N(C)c1ncnc2[nH]ccc12 (centres undefined)
10 µL/min/mg | C[C@@H]1CCN(C(=O)CC#N)C[C@@H]1N(C)c1ncnc2[nH]ccc12 [TOFACITINIB]
16 µL/min/mg | CC1CCN(C(=O)CC(F)(F)F)CC1N(C)c1ncnc2[nH]ccc12 (centres undefined)
